In patent US20230331715A1, “SPIRO[3.3]HEPTANE DERIVATIVES FOR THE TREATMENT AND PROPHYLAXIS OF HEPATITIS B VIRUS INFECTION” (priority 2020, published 2023):
Like-named read-outs stand apart in the source and are kept apart here.

Columns and labels:
Format in all cases: cell-based
[1] = test system: HBsAg; assay: PHH HBV natural infection assay, HBsAg (alphalisa)
Description: (§1) Detailed procedures regarding primary human hepatocyte (PHH) HBV natural infection assay are described as below. One tube of frozen PHH (10 million cells) is thawed in 37° C. water bath and then transferred to 20 mL of PHH thawing medium (Sigma, InVitroGRO HT Medium, Cat. S03319) with gently mixing. The cells were then centrifuged at […] for 5 min, the supernatant was discarded and the tube was refilled with 25 mL of PHH plating medium (Sigma, InVitroGRO CP Medium, Cat. S03317). The tube was shaken very gently to re-suspend all cells, and then 50 µl of cells were transferred to each well 384-well collagen I coated plate with appropriate liquid handling equipment, e.g. Integra VIAFLO384 or Agilent Bravo. The cells were then cultured for 24 hours in a cell incubator. For HBV infection, after PHH attachment on the culture plate, the plating medium was removed and replenished with PHH culture medium containing HBV virus. The PHH culture medium was prepared with Dulbecco’s Modified Eagle Medium (DMEM)/F12 (1: 1 in volume ratio) containing 10% fetal bovine serum (Gibco, Cat. 10099141), 5 ng/mL human epidermal growth factor (Gibco, Cat.PHG0311L), 20 ng/mL dexamethasone (Sigma, Cat.D4902-100mg), 250 ng/mL human recombinant insulin (Gibco, Cat.41400045) and 100 U/mL penicillin. HBV virus at 200 genome equivalent (GE) per cell with 4% PEG8000 (Sigma, Cat.P1458) containing culture medium were added to the PHH culture medium for infection. The cells were then cultured for 24 hours in cell incubator. Then the cell culture supernatant was removed. The HBV-infected PHH were cultured with sandwich culture method with PHH culture medium containing 1% DMSO and 0.25 mg/mL matrix gel for 72 hours. The supernatant was then refreshed with PHH culture medium containing different concentrations of testing compounds for two times with 72-hour interval. At the end of treatment, the supernatant was collected for viral markers measurements, including HBsAg, HBeAg, HBV DNA and cytotoxicity. HBsAg and HBeAg were detected using alphalisa method using their specific antibodies. For HBV DNA detection, HBV DNA Quantitative Fluorescence Diagnostic Kit (Sansure Biotech Inc.) was used following the manufacture’s protocol. Cytotoxicity was determined using Cell Counting Kit-8 (CCK8, Dojindo Molecular Technologies, Inc.).
(§2) The compounds of the present invention were tested for their capacity to inhibit HBsAg and HBeAg as described herein.

[2] = test system: HBeAg; assay: PHH HBV natural infection assay, HBeAg (alphalisa)
Description: as §1, §2

[3] = Cytotoxicity in PHH natural infection assay (Cell Counting Kit-8); settings: human; HBV-infected PHH, CCK8, compound refreshed two times with 72-hour interval
Description: as §1

[4] = read-out: HBsAg IC50, HBV-infected PHH, culture supernatant, compound refreshed two times with 72-hour interval, alphalisa
[5] = read-out: HBeAg IC50, HBV-infected PHH, culture supernatant, compound refreshed two times with 72-hour interval, alphalisa
[6] = Hepatitis B virus, 72 h, read-out: HBsAg IC50, HBV-infected PHH, culture supernatant, compound refreshed two times with 72-hour interval, alphalisa
[7] = Hepatitis B virus, 72 h, read-out: HBeAg IC50, HBV-infected PHH, culture supernatant, compound refreshed two times with 72-hour interval, alphalisa

With `[H][C@]1(NC(=O)c2ccnc(C(N)=O)c2)C[C@@]2(C1)C[C@]([H])(c1nc3cc(Cl)ccc3s1)C2` (single isomer, unassigned) [Example 53-a, (Sa)-N4-[6-(5-chloro-1,3-benzothiazol-2-yl)spiro[3.3]heptan-2-yl]pyridine-2,4-dicarboxamide] the IC50 [1, 4] was 0.29 µM, the IC50 [2, 5] was 0.24 µM and the CC50 at 144 h [3] was 36.8 µM.
Work on `[H][C@]1(NC(=O)c2ccnc(C(N)=O)c2)C[C@]2(C1)C[C@]([H])(c1nc3cc(Cl)ccc3s1)C2` (single isomer, unassigned) [Example 53-b, (Ra)-N4-[6-(5-chloro-1,3-benzothiazol-2-yl)spiro[3.3]heptan-2-yl]pyridine-2,4-dicarboxamide] yielded an IC50 [1, 4] of 5.96 µM, an IC50 [2, 5] of 5.25 µM and a CC50 at 144 h [3] of over 10 µM.
For `[H][C@]1(NC(=O)c2ccnc(S(C)(=O)=O)c2)C[C@@]2(C1)C[C@]([H])(c1nc3cc(Cl)ccc3s1)C2` (single isomer, unassigned) [Example 54-a, (Sa)-N-[6-(5-chloro-1,3-benzothiazol-2-yl)spiro[3.3]heptan-2-yl]-2-methylsulfonyl-pyridine-4-carboxamide], the IC50 [1, 4] was 2.46 µM, the IC50 [2, 5] was 1.79 µM and the CC50 at 144 h [3] was over 10 µM.
Work on `[H][C@]1(NC(=O)c2ccnc(S(C)(=O)=O)c2)C[C@]2(C1)C[C@]([H])(c1nc3cc(Cl)ccc3s1)C2` (single isomer, unassigned) [Example 54-b, (Ra)-N-[6-(5-chloro-1,3-benzothiazol-2-yl)spiro[3.3]heptan-2-yl]-2-methylsulfonyl-pyridine-4-carboxamide] yielded an IC50 [1, 4] of 0.28 µM, an IC50 [2, 5] of 0.23 µM and a CC50 at 144 h [3] of 15.3 µM.
For `[H][C@]1(NC(=O)c2ccnc(S(=O)(=O)C3CC3)c2)C[C@@]2(C1)C[C@]([H])(c1nc3cc(Cl)ccc3s1)C2` (single isomer, unassigned) [Example 55-a, (Sa)-N-[6-(5-chloro-1,3-benzothiazol-2-yl)spiro[3.3]heptan-2-yl]-2-cyclopropylsulfonyl-pyridine-4-carboxamide], the IC50 [1, 4] was 1.56 µM, the IC50 [2, 5] was 1.09 µM and the CC50 at 144 h [3] was 22.5 µM.
`[H][C@]1(NC(=O)c2ccnc(S(=O)(=O)C3CC3)c2)C[C@]2(C1)C[C@]([H])(c1nc3cc(Cl)ccc3s1)C2` (single isomer, unassigned) [Example 55-b, (Ra)-N-[6-(5-chloro-1,3-benzothiazol-2-yl)spiro[3.3]heptan-2-yl]-2-cyclopropylsulfonyl-pyridine-4-carboxamide] showed an IC50 [1, 4] of 0.54 µM, an IC50 [2, 5] of 0.4 µM and a CC50 at 144 h [3] of 11.6 µM.
Work on `[H][C@]1(NC(=O)c2cc(C(N)=O)ncn2)C[C@@]2(C1)C[C@]([H])(c1nc3cc(Cl)ccc3s1)C2` (single isomer, unassigned) [Example 56-a, (Sa)-N6-[6-(5-chloro-1,3-benzothiazol-2-yl)spiro[3.3]heptan-2-yl]pyrimidine-4,6-dicarboxamide] yielded an IC50 [1, 6] of 3.29 µM, an IC50 [2, 7] of 2.47 µM and a CC50 at 144 h [3] of over 10 µM.
`[H][C@]1(NC(=O)c2cc(C(N)=O)ncn2)C[C@]2(C1)C[C@]([H])(c1nc3cc(Cl)ccc3s1)C2` (single isomer, unassigned) [Example 56-b, (Ra)-N6-[6-(5-chloro-1,3-benzothiazol-2-yl)spiro[3.3]heptan-2-yl]pyrimidine-4,6-dicarboxamide] showed an IC50 [1, 4] of 3.3 µM, an IC50 [2, 5] of 2.27 µM and a CC50 at 144 h [3] of over 10 µM.
With `O=C(NC1CC2(C1)CC(c1nc3cc(Cl)ccc3s1)C2)c1cccc(C(F)(F)F)c1` (stereo not drawn) [Example 1, N-[6-(5-chloro-1,3-benzothiazol-2-yl)spiro[3.3]heptan-2-yl]-3-(trifluoromethyl)benzamide] the IC50 [1, 6] was 6.55 µM, the IC50 [2, 7] was 4.53 µM and the CC50 at 144 h [3] was over 10 µM.
In the case of `NS(=O)(=O)c1cccc(C(=O)NC2CC3(C2)CC(c2nc4cc(Cl)ccc4s2)C3)c1` (stereo not drawn) [Example 2, N-[6-(5-chloro-1,3-benzothiazol-2-yl)spiro[3.3]heptan-2-yl]-3-sulfamoyl-benzamide], the IC50 [1, 6] is reported as 3.71 µM, the IC50 [2, 7] is reported as 3.33 µM and the CC50 at 144 h [3] is reported as over 10 µM.
Work on `CP(C)(=O)c1cccc(C(=O)NC2CC3(C2)CC(c2nc4cc(Cl)ccc4s2)C3)c1` (stereo not drawn) [Example 3, N-[6-(5-chloro-1,3-benzothiazol-2-yl)spiro[3.3]heptan-2-yl]-3-dimethylphosphoryl-benzamide] yielded an IC50 [1, 6] of 6.37 µM, an IC50 [2, 7] of 4.39 µM and a CC50 at 144 h [3] of over 10 µM.
Molecule `O=C(NC1CC2(C1)CC(c1nc3cc(Cl)ccc3s1)C2)c1ccnc(C(F)(F)F)c1` (stereo not drawn) [Example 4, N-[6-(5-chloro-1,3-benzothiazol-2-yl)spiro[3.3]heptan-2-yl]-2-(trifluoromethyl)pyridine-4-carboxamide] has an IC50 [1, 6] of 5.05 µM, an IC50 [2, 7] of 4.34 µM and a CC50 at 144 h [3] of over 10 µM.
Work on `N#Cc1cc(C(=O)NC2CC3(C2)CC(c2nc4cc(Cl)ccc4s2)C3)ccn1` (stereo not drawn) [Example 5, N-[6-(5-chloro-1,3-benzothiazol-2-yl)spiro[3.3]heptan-2-yl]-2-cyano-pyridine-4-carboxamide] yielded an IC50 [1, 6] of 3.47 µM, an IC50 [2, 7] of 2.92 µM and a CC50 at 144 h [3] of over 10 µM.
Work on `Cc1cc(C(=O)NC2CC3(C2)CC(c2nc4cc(Cl)ccc4s2)C3)ccn1` (stereo not drawn) [Example 6, N-[6-(5-chloro-1,3-benzothiazol-2-yl)spiro[3.3]heptan-2-yl]-2-methyl-pyridine-4-carboxamide] yielded an IC50 [1, 6] of 3.63 µM, an IC50 [2, 7] of 3.3 µM and a CC50 at 144 h [3] of over 10 µM.
Work on `CS(=O)(=O)Cc1cc(C(=O)NC2CC3(C2)CC(c2nc4cc(Cl)ccc4s2)C3)ccn1` (stereo not drawn) [Example 7, N-[6-(5-chloro-1,3-benzothiazol-2-yl)spiro[3.3]heptan-2-yl]-2-(methylsulfonylmethyl)pyridine-4-carboxamide] yielded an IC50 [1, 6] of 3.33 µM, an IC50 [2, 7] of 3.09 µM and a CC50 at 144 h [3] of over 10 µM.
In the case of `CC(C)(c1cc(C(=O)NC2CC3(C2)CC(c2nc4cc(Cl)ccc4s2)C3)ccn1)S(C)(=O)=O` (stereo not drawn) [Example 8, N-[6-(5-chloro-1,3-benzothiazol-2-yl)spiro[3.3]heptan-2-yl]-2-(1-methyl-1-methylsulfonylethyl)pyridine-4-carboxamide], the IC50 [1, 6] is reported as 1.89 µM, the IC50 [2, 7] is reported as 1.23 µM and the CC50 at 144 h [3] is reported as 35.9 µM.
Molecule `CCS(=O)(=O)c1cc(C(=O)NC2CC3(C2)CC(c2nc4cc(Cl)ccc4s2)C3)ccn1` (stereo not drawn) [Example 9, N-[6-(5-chloro-1,3-benzothiazol-2-yl)spiro[3.3]heptan-2-yl]-2-ethylsulfonyl-pyridine-4-carboxamide] has an IC50 [1, 6] of 1.35 µM, an IC50 [2, 7] of 1.21 µM and a CC50 at 144 h [3] of 13.4 µM.
Work on `NC(=O)Nc1cc(C(=O)NC2CC3(C2)CC(c2nc4cc(Cl)ccc4s2)C3)ccn1` (stereo not drawn) [Example 10, N-[6-(5-chloro-1,3-benzothiazol-2-yl)spiro[3.3]heptan-2-yl]-2-ureido-pyridine-4-carboxamide] yielded an IC50 [1, 6] of 7.7 µM, an IC50 [2, 7] of 8.43 µM and a CC50 at 144 h [3] of over 50 µM.
Molecule `NC(=O)c1cc(C(=O)NC2CC3(C2)CC(c2nc4cc(Cl)ccc4s2)C3)ccn1` (stereo not drawn) [Example 11, N4-[6-(5-chloro-1,3-benzothiazol-2-yl)spiro[3.3]heptan-2-yl]pyridine-2,4-dicarboxamide] has an IC50 [1, 6] of 4.06 µM, an IC50 [2, 7] of 6.81 µM and a CC50 at 144 h [3] of over 50 µM.
With `NC(=O)c1cc(C(=O)NC2CC3(C2)CC(c2nc4cc5c(cc4s2)OCO5)C3)ccn1` (stereo not drawn) [Example 12, N4-[6-([1,3]dioxolo[4,5-f][1,3]benzothiazol-6-yl)spiro[3.3]heptan-2-yl]pyridine-2,4-dicarboxamide] the IC50 [1, 6] was 6.58 µM, the IC50 [2, 7] was 6.53 µM and the CC50 at 144 h [3] was 23.3 µM.
Molecule `O=C(NC1CC2(C1)CC(c1nc3cc(Cl)ccc3s1)C2)c1ccc(S(=O)(=O)C2CC2)o1` (stereo not drawn) [Example 13, N-[6-(5-chloro-1,3-benzothiazol-2-yl)spiro[3.3]heptan-2-yl]-5-cyclopropylsulfonyl-furan-2-carboxamide] has an IC50 [1, 6] of 0.48 µM, an IC50 [2, 7] of 0.36 µM and a CC50 at 144 h [3] of 94.9 µM.
For `O=C(NC1CC2(C1)CC(c1nc3cc(Cl)ccc3s1)C2)c1ccc(C(F)(F)F)o1` (stereo not drawn) [Example 14, N-[6-(5-chloro-1,3-benzothiazol-2-yl)spiro[3.3]heptan-2-yl]-5-(trifluoromethyl)furan-2-carboxamide], the IC50 [1, 6] was 2.48 µM, the IC50 [2, 7] was 2.52 µM and the CC50 at 144 h [3] was over 100 µM.
